The supplement of paper PMC6045584
± gives the standard deviation of the averaged measurements.

compound: CS(=O)(=O)c1ccc(C(=O)Nc2ccc(Cl)c(-c3ccccn3)c2)c(Cl)c1 [VISMODEGIB]; assay: surviving fraction relative to DMSO-only wells; higher = less growth inhibition; conditions: 50 nM; exposure time: 5 days
In short: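 Tumour cell lines were seeded in log phase at 250–500 cells per well into 384-well plates. Starting 24 hours later, inhibitors were present continuously for five days at 0.5, 1, 5, 10, 50, 100, 500 and 1000 nM. Surviving fraction, from CellTiter-Glo luminescence, is normalised to the median of DMSO-only wells. Three screens per line were required, with replicate Pearson r >0.7 and median Z' >0.3 for a line to be kept.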

Test System	surviving fraction
MDAMB134 BREAST	0.687 ± 0.12
C33A CERVIX	0.879 ± 0.066
SKBR3 BREAST	1.01 ± 0.068
MHM BONE	1.04 ± 0.015
VP229 BREAST	0.972 ± 0.14
SYO1 SYNOVIAL	0.879 ± 0.042
ZR751 BREAST	0.756 ± 0.036
KPD BONE	0.956 ± 0.012
SIHA CERVIX	0.923 ± 0.044
DU4475 BREAST	1.1 ± 0.41
BT549 BREAST	0.76 ± 0.23
COLO320DM LARGE INTESTINE	1.05 ± 0.094
T47D BREAST	0.99 ± 0.035
H23 LUNG	1 ± 0.069
NCIH441 LUNG	0.971 ± 0.041
HCT15 LARGE INTESTINE	0.931 ± 0.034
SCC90 HEADNECK	0.848 ± 0.026
MDAMB453 BREAST	0.89 ± 0.047
MG63 BONE	0.983 ± 0.003
A549 LUNG	0.994 ± 0.017
MDAMB468 BREAST	0.908 ± 0.083

same assay, conditions: 100 nM; exposure time: 5 days

Test System	surviving fraction
MDAMB134 BREAST	0.717 ± 0.093
C33A CERVIX	1 ± 0.069
SKBR3 BREAST	0.896 ± 0.029
MHM BONE	1.05 ± 0.017
VP229 BREAST	1.01 ± 0.017
SYO1 SYNOVIAL	0.882 ± 0.041
ZR751 BREAST	0.857 ± 0.037
KPD BONE	1.05 ± 0.073
SIHA CERVIX	0.993 ± 0.12
DU4475 BREAST	0.876 ± 0.17
BT549 BREAST	0.799 ± 0.19
COLO320DM LARGE INTESTINE	1.02 ± 0.087
T47D BREAST	1.07 ± 0.015
H23 LUNG	1.16 ± 0.072
NCIH441 LUNG	0.945 ± 0.041
HCT15 LARGE INTESTINE	1.01 ± 0.048
SCC90 HEADNECK	0.84 ± 0.053
MDAMB453 BREAST	0.954 ± 0.014
MG63 BONE	1.01 ± 0.02
A549 LUNG	1.06 ± 0.035
MDAMB468 BREAST	1.02 ± 0.076

same assay, conditions: 500 nM; exposure time: 5 days

Test System	surviving fraction
MDAMB134 BREAST	0.625 ± 0.024
C33A CERVIX	0.851 ± 0.055
SKBR3 BREAST	0.764 ± 0.026
MHM BONE	1.04 ± 0.008
VP229 BREAST	1.15 ± 0.16
SYO1 SYNOVIAL	0.884 ± 0.045
ZR751 BREAST	0.835 ± 0.15
KPD BONE	0.98 ± 0.039
SIHA CERVIX	0.895 ± 0.097
DU4475 BREAST	0.899 ± 0.22
BT549 BREAST	0.744 ± 0.071
COLO320DM LARGE INTESTINE	1.04 ± 0.092
T47D BREAST	0.983 ± 0.013
H23 LUNG	1.01 ± 0.034
NCIH441 LUNG	0.9667 ± 0.0045
HCT15 LARGE INTESTINE	0.9417 ± 0.0025
SCC90 HEADNECK	0.841 ± 0.015
MDAMB453 BREAST	0.949 ± 0.027
MG63 BONE	0.905 ± 0.007
A549 LUNG	1.01 ± 0.032
MDAMB468 BREAST	0.944 ± 0.065

same assay, conditions: 1000 nM; exposure time: 5 days

Test System	surviving fraction
MDAMB134 BREAST	0.662 ± 0.11
C33A CERVIX	0.953 ± 0.066
SKBR3 BREAST	0.774 ± 0.075
MHM BONE	1.085 ± 0.0059
VP229 BREAST	1.11 ± 0.014
SYO1 SYNOVIAL	0.898 ± 0.048
ZR751 BREAST	0.945 ± 0.06
KPD BONE	0.933 ± 0.07
SIHA CERVIX	0.991 ± 0.064
DU4475 BREAST	0.977 ± 0.32
BT549 BREAST	0.75 ± 0.018
COLO320DM LARGE INTESTINE	0.977 ± 0.095
T47D BREAST	0.989 ± 0.025
H23 LUNG	1.06 ± 0.067
NCIH441 LUNG	1.03 ± 0.086
HCT15 LARGE INTESTINE	1.03 ± 0.033
SCC90 HEADNECK	0.881 ± 0.029
MDAMB453 BREAST	0.9893 ± 0.0072
MG63 BONE	0.966 ± 0.026
A549 LUNG	1.03 ± 0.069
MDAMB468 BREAST	0.955 ± 0.1
